{"source": "patent US4933349A", "about": "“Treating agent for heart failure” (Daiichi Seiyaku Co., Ltd., priority 1987, dated 1990)", "key": {"[1]": {"system": "Monocrotaline-Induced Heart Failure Model (Heart Failure induced by Pulmonary Hypertension)", "assay": "Efficacy in Monocrotaline-induced heart failure model (heart failure induced by pulmonary hypertension)", "type": "in vivo, SD-SLC male rats", "method": "Efficacy in Monocrotaline-Induced Heart Failure Model (A Model of Heart Failure induced by Pulmonary Hypertension)\nSD-SLC male rats (body weight: 160 to 190 g) were used. Monocrotaline was dissolved in 1N hydrochloric acid, and the solution was adjusted to a pH of 7.4 with a 1N sodium hydroxide aqueous solution. Distilled water was added thereto to make a 40 mg/ml solution. The solution was subcutaneously administered to the rats at a dose of 40 mg/kg to prepare right ventricular insufficient rats.\nAnother group of rats was subcutaneously administered with 1 ml/kg of physiological saline only and served as intact control.\nCompound A was dissolved in distilled water. Six hours from the administration of Monocrotaline, the solution was orally administered to the test animals at a single daily dose of 10 mg/kg for consecutive 1 month (6 days per week). As a control group, the right ventricular insufficient rats orally received 5 ml/kg of distilled water only.\nOn the next day of the final administration of Compound A, a catheter was inserted into the right ventricle under anesthesia with pentobarbital (50 mg/kg, i.p.), and the right ventricular systolic pressure was measured. Thereafter, the heart was excised, divided into the left ventricle (including the septum) and the right ventricle, and the wet weight of each ventricle was determined. The results obtained are given in Table 3, as expressed as mean±S.E."}, "rats": {"system": "rats", "assay": "Acute toxicity in rats (LD50), oral or intravenous", "type": "in vivo", "excerpt": "Acute toxicities of Compound A in rats through oral administration or intravenous injection were as follows."}, "[2]": {"system": "Heart Failure induced by Myocardial Infarction", "assay": "Efficacy in heart failure induced by myocardial infarction (left coronary artery ligation), hemodynamic measurements and ventricle weight", "type": "in vivo, SD-SLC male rats", "method": "Efficacy in Heart Failure induced by Myocardial Infarction SD-SLC male rats (body weight: 272 to 315 g) (purchased from Shizuoka Jikken Dobutsu Kyodo Kumiai) were used as test animals. Intercostal thoracotomy was made on the left chest of the rat anesthesized with pentobarbital (50 mg/kg, i.p.). The left coronary artery was then ligated at the position 2 to 3 mm away from its origin according to the method of Selye et al, Angiology, Vol. 11, 398 (1960). Immediately after confirming that the peripheral cardiac muscle of the open chest rat was involved in ischemia, the opening was closed, and the animal was fed on food and tap water ad lib. As a sham operation group, another group of rats received thoracotomy in the same manner as described above except for carrying out no ligation of the coronary artery. […] A control group orally received 5 ml/kg/day of ion-exchanged water only. On the next day of the final administration of Compound A, a catheter was inserted into the femoral artery and the left ventricle of the rat under anesthesia with Inactin (100 mg/kg, i.p.), and systemic mean blood pressure, maximum rate of increase of the intraventricular pressure (LV dp/dt max), contractile index (LV dp/dt max/p), left ventricular systolic pressure, left ventricular diastolic pressure and heart rate were measured. After completion of these measurements, the heart was excised and divided into the left ventricle (including the septum) and the right ventricle. The wet weight of each ventricle was measured."}, "[3]": {"details": "10 mg/kg p.o. daily, 6 times per week, 1 month, mean±S.E., n = 7"}, "[4]": {"details": "10 mg/kg p.o. daily, 6 times per week, 1 month, mean±S.E., n = 7, ** P < 0.01 vs sham, # P < 0.05 vs control group"}, "[5]": {"details": "coronary artery ligation, 1 month"}, "[6]": {"details": "wet weight after 10 mg/kg p.o. daily, 1 month, mean±S.E., n = 7, * P < 0.05 vs control group"}}, "note": "“Also recorded” adds a separate entry of the source. Where a name gives a salt, the structure may show the parent alone.", "data": [{"smiles": "O=C(O)c1ccc2c(c1)CCC(Cn1ccnc1)C2", "note": "(stereo not shown) [Compound A, 6-(1-Imidazolylmethyl)-5,6,7,8-tetrahydronaphthalene-2-carboxylic acid hydrochloride hemihydrate]", "values": [{"measurement": "Right Ventricular Systolic Pressure", "setting": "[1]; 10 mg/kg p.o. daily, 6 days per week, 1 month, mean±S.E., N = 7, * P < 0.05 vs intact control, # P < 0.05 vs control group", "value": "46.9 ± 4.9", "unit": "mmHg"}, {"measurement": "Right Ventricle Weight/Left Ventricle Weight", "setting": "[1]; 10 mg/kg p.o. daily, 6 days per week, 1 month, mean±S.E., N = 7, ** P < 0.01 vs intact control group", "value": "0.41 ± 0.04"}, {"measurement": "Right ventricular hypertrophy / cardiac hypertrophy (result in words)", "setting": "[1]; Monocrotaline, 1 month", "value": "showed a tendency to inhibit the right ventricular hypertrophy"}, {"measurement": "Right ventricular systolic pressure (result in words)", "setting": "[1]; Monocrotaline, 1 month", "value": "significantly inhibited the increase in the right ventricular systolic pressure"}, {"measurement": "Improvement of heart failure induced by pulmonary hypertension (result in words)", "setting": "[1]; long-term administration", "value": "exhibited improvements of heart failure induced by pulmonary hypertension"}, {"measurement": "LD50", "setting": "rats; female rats, i.v.", "value": 783, "unit": "mg"}, {"measurement": "LD50", "setting": "rats; female rats, p.o.", "value": 1994, "unit": "mg"}, {"measurement": "LD50", "setting": "rats; male rats, i.v.", "value": 807, "unit": "mg"}, {"measurement": "LD50", "setting": "rats; male rats, p.o.", "value": 2438, "unit": "mg"}, {"measurement": "Heart Rate", "setting": "[2]; [3]", "value": "399 ± 14", "unit": "min⁻¹"}, {"measurement": "Mean Blood Pressure", "setting": "[2]; [3]", "value": "132 ± 5", "unit": "mmHg"}, {"measurement": "Left Ventricular Systolic Pressure", "setting": "[2]; 10 mg/kg p.o. daily, 6 times per week, 1 month, mean±S.E., n = 7, * P < 0.05 vs sham operation group", "value": "143 ± 6", "unit": "mmHg"}, {"measurement": "Contractile Index (LV dp/dt max/p)", "setting": "[2]; [4]", "value": "79 ± 5", "unit": "s⁻¹"}, {"measurement": "Left Ventricular Diastolic Pressure", "setting": "[2]; [4]", "value": "12.0 ± 3.2", "unit": "cmH2 O"}, {"measurement": "Contractile index (result in words)", "setting": "[2]; [5]", "value": "inhibition on reduction of contractile index"}, {"measurement": "Left ventricular diastolic pressure (result in words)", "setting": "[2]; [5]", "value": "inhibition on reduction of contractile index and on elevation of left ventricular diastolic pressure was observed"}, {"measurement": "Ventricle weight / cardiac hypertrophy (result in words)", "setting": "[2]; coronary artery ligation, 1 month, hydrochloride hemihydrate", "value": "increase of the ventricle weight can be suppressed significantly; also recorded: inhibit cardiac hypertrophy"}, {"measurement": "Blood pressure (result in words)", "setting": "[2]; long-term administration", "value": "without adversely affecting the blood pressure"}, {"measurement": "Cardiac contractility and pressure load to the heart (result in words)", "setting": "[2]; long-term administration", "value": "improved reduction of cardiac contractility and relieved pressure load to the heart"}, {"measurement": "Weight of Ventricle, Right", "setting": "[2]; wet weight after 10 mg/kg p.o. daily, 1 month, mean±S.E., n = 7", "value": "0.361 ± 0.028", "unit": "g"}, {"measurement": "Weight of Ventricle, Left", "setting": "[2]; [6]", "value": "0.861 ± 0.029", "unit": "g"}, {"measurement": "Weight of Ventricle, Total", "setting": "[2]; [6]", "value": "1.222 ± 0.052", "unit": "g"}]}]}
